Data: US10934253B2, “Therapeutic compounds and methods” (UNIVERSITY OF TASMANIA, priority 2017, dated 2021)

Assays:
HepG2 cells [1] = assay: Acute ATP rescue assay (impaired mitochondrial function, rotenone); assay type: cell-based; settings: Homo sapiens, 1 h; HepG2; 1 μM quinones with rotenone 10 μM, 60 minutes, glucose-free DMEM; % ATP compared to untreated (no-rotenone) control
Procedure: HepG2 cells were seeded at a density of 5000 cells per well in a 96-well plate and incubated for 24 hours in DMEM with 0.3 g/l glucose, 10% FBS and Penicillin-Streptomycin-Glutamine. Cells were treated with 1 μM quinones in presence or absence of rotenone (10 μM), for 60 minutes in glucose-free DMEM ATP levels were quantified using luminescence from the ATP-dependent enzymatic oxidation of luciferin by luciferase. Cells were lysed in a volume of 40 μl (4 mM EDTA, 0.2% Triton X-100) for five minutes at room temperature (RT) on an orbital shaker at 200 rpm. […] Luminescence was quantified immediately using a multimode plate reader (Fluoroscan Ascent, Thermo Scientific). ATP levels were standardized to protein levels using a commercial BCA assay (Protein DC; BioRad) and changes were calculated as percentage relative to levels of DMSO-treated control cells. Data is expressed as % ATP compared to the untreated (no-rotenone) control.
Vitamin K, menadione and idebenone were used as comparative controls. DMSO was used as a control.

HepG2 cells [2] = assay: Rescue of cell viability in the presence of a mitochondrial inhibitor (rotenone 1 μM); assay type: cell-based; settings: Homo sapiens, HepG2
HepG2 cells [3] = assay: Cell viability in the presence of a mitochondrial inhibitor (rotenone 10 μM); assay type: cell-based; settings: Homo sapiens, HepG2, 48 h, read-out: CELL VIABILITY [%]
[4] = tested on: DSS-induced colitis in C57BL/6 mice; assay: Dextran sulfate sodium (DSS) induced colitis mouse model; assay type: in vivo; settings: 2.5% DSS 7 days, 200 mg/kg orally in food once daily, vs DSS controls
Procedure: FIGS. 8-11: Ulcerative Colitis mouse model following treatment with representative compound of Formula (I) (UTA77); FIG. 8: Body weight loss; FIG. 9: Stool consistency; FIG. 10: Bloody stools; FIG. 11: Disease activity index. […] UTA77 was formulated with food powder (200 mg/kg of body weight) which was orally administered once daily over a period of 7 days.
Body weight (refer to FIG. 8), stool consistency (refer to FIG. 9), blood content of stools (refer to FIG. 10), and general disease activity index (refer to FIG. 11) were all assessed following treatment with representative compound of Formula (I), UTA77.
Female C57BL/6 mice were used at 7-8 weeks of age having an average body weight≈17 g. Mice were divided randomly into three different groups: • 1. a healthy control group without DSS, • 2. a control group with DSS, • 3. a group treated with DSS and test compound (n=5 per group).
Body weight of mice were assessed daily over an initial acclimation period of one week (FIG. 8). All mice were non-fasting and had access to food and drinking water (autoclaved tap water) ad libitum. Representative compounds of Formula (I) were formulated with food powder (200 mg/kg of body weight) to produce individual portions that were placed into the cage once a day. Representative compounds of Formula (I) (20 mg/ml) were stirred overnight at 4° C. in 500 ml 0.5% carboxymethylcellulose (CMC) solution. To 37.5 ml of the CMC solution, 41.25 g sucrose, 371.25 g food powder and 0.5% CMC solution were mixed to prepare a food mash, which was aliquoted (2.2 g portions) in weighting trays and individually stored at −20° C. Colitis was induced by supplementing 2.5% w/v of dextran sulphate sodium (DSS, MW=36,000-50,000, colitis grade, MP Biomedicals, USA) in the drinking water of mice from day 0 to day 7 (day of termination). On day 0, all mice were weighed and checked for stool consistency and occult blood before they were exposed to DSS and test compounds. Control animals were only supplied with autoclaved drinking water without DSS, and normal chow pellets, while 2.5% DSS in tap water was provided to the DSS-treated groups from day 0 to day 7. All controls groups were also supplied with 2.2 g of food mash without test compounds. The animals of the drug-treated groups received 200 mg/kg of test compounds in food mash with 2.5% of DSS in water from day 0 to day 7. Body weight (refer to FIG. 8), stool consistency (refer to FIG. 9), blood content of stools (refer to FIG. 10) were recorded daily. The Disease Activity Index (DAI) (FIG. 11) was calculated according to scoring Table 9 below. Each parameter was scored independently and all three parameters were added to calculate the DAI.

COc1ccc(CCNC(=O)CCCC2=C(C)C(=O)c3ccccc3C2=O)cc1OC [UTA #77, N-(3,4-dimethoxyphenethyl)-4-(3-methyl-1,4-naphthoquinone-2-yl)butanamide]
activity at 1 µM (HepG2 cells [1]): 99.1%
viability at 10 µM (HepG2 cells [2]): 95.9%
viability at 10 µM (HepG2 cells [3]): 95.9%
Bloody stools (in words) [4]: reduction in bloody stools
Body weight loss (in words) [4]: less weight loss than DSS controls
Disease activity index (in words) [4]: reduced disease activity
Stool consistency (in words) [4]: improved stools
